Reference: US10822317B2, “Methods and compositions for wound healing” (QBiotics Limited, priority 2013, dated 2020)

Columns and labels:
[1] = system: TGF-β1-stimulated dermal fibroblasts; test: Differentiation of adult dermal fibroblasts into myofibroblasts (α-SMA expression); type: cell-based, human
Description: The effects of Compounds […] and 37 on dermal fibroblast differentiation to myofibroblasts was examined by the extent of α-SMA expression by TGF-βi-stimulated dermal fibroblasts.
Following trypsinization, fibroblasts were seeded in 8-well, Permanoxchamber slides (VWR International) in DMEM medium, containing antibiotics, 2 mM L-glutamine and 10% foetal calf serum (250 μL, all purchased from Invitrogen); at a cell density of 2.5×10^4 cells/well and maintained at 37° C. in 5% CO2/95% air for 48 h.
At 48 hr, fibroblasts were growth-arrested in serum-free DMEM for 48 hr and then replaced with serum-free DMEM (250 μL), containing Compounds 1 or 37 at concentrations of 0, 0.001, 0.01, 0.1, 1.0 and 10.0 μg/mL (3 wells/concentration/compound) and TGF-β1 (10 ng/ml, Peprotech). Fibroblasts were maintained at 37° C. in 5% CO2/95% air for 72 hr.
At 72 hr, chamber slide wells were washed with PBS (×1, 250 μL) and fixed in 4% paraformaldehyde (100 μL/well) for 10 min. The chamber slide wells were then washed again with PBS (×1, 250 μl), treated with 0.1% Triton X-100 in PBS (100 μL, Sigma) for 5 min and re-washed with PBS (×1, 250 μL). Wells were blocked with 1% BSA in PBS (250 μL, Sigma) for 1 h and washed (×3) in 0.1% BSA/PBS.
Wells were incubated with monoclonal mouse anti-human α-SMA, clone 1A4 (1:100, 150 ul, Sigma) at 4° C. overnight, washed (×6) in 0.1% BSA/PBS and incubated with Alexa Fluor 488 goat anti-mouse IgG antibody (1:1000, 250 μL, Invitrogen), at room temperature for 1 h, under darkness. Chamber slides were washed (×6) in 0.1% BSA/PBS and counterstained with Hoescht 33258 solution for 30 min under darkness (1:2000, 250 μL, Sigma). Chamber were subsequently removed for slides and treated with Fluorsave (Santa Cruz) for 10 min under darkness. Slides were viewed by fluorescence microscopy (Leica Microsystem), with digital images being capturedat ×200 magnification. Digital images were processed using HC Image J Software.

[2] = system: immortalised human keratinocyte cells (HaCaT); test: Scratch repopulation and closure with HaCaT; type: cell-based; details: 48 hours; for % of scratch wound area remaining open after treatment: ± standard error
Description: The ability of immortalised human keratinocyte cells (HaCaT) to migrate across a scratch wound made in a confluent monolayer following treatment with either Compound 1 or Compound 37 was determined by the following method.
Trypsinised HaCaT cells were seeded at a cell density of 7.4×10^4 cells/mL in 24-well BD Falcon flat-bottomed, tissue culture plates (VWR International, UK) in 1 mL Dulbecco's Modified Eagle Medium (DMEM), supplemented with L-glutamine (2 mM), antibiotics (100 U/mL penicillin G sodium, 100 μg/mL streptomycin sulphate and 0.25 μg/mL amphotericin B); and 10% foetal calf serum (all Invitrogen Ltd., UK) to give a cell density of 7.4×10^4 cells seeded in each well. The cells were then maintained at 37° C. in a 5% CO2/95% air atmosphere overnight. The following morning, the 10% foetal calf serum-containing DMEM was replaced with serum-free DMEM and the HaCaT cells were subsequently serum-starved in DMEM for 48 hr.
After 48 hr, the serum-free DMEM was removed and a single scratch ‘wound’ made with a sterile pipette across each cell layer. Following washing twice in 1 mL PBS, Compound 1- or Compound 37-containing medium (1 mL) was added to each well. This medium consisted of DMEM, supplemented with L-glutamine (2 mM), antibiotics (as above) and 1% foetal calf serum, in addition to Compound 1 or Compound 37 at final concentrations of 0, 0.001, 0.01, 0.1, 1.0, 10 or 100 μg/mL. There were three replicate wells per concentration for each compound.
The HaCaT cultures were maintained at 37° C. in a 5% CO2/95% air atmosphere and the repopulation of the denuded ‘wound’ areas monitored by Time-Lapse Confocal Microscopy (Leica TCS SP5 Confocal Microscope; Leica Microsystems UK Ltd., UK) at 100× magnification, with digital images captured at fixed positions every 20 min over a 48 h period. The digital image sequences were exported and prepared as .avi movie files, using LAS AF Software (Leica Microsystems). The rates of HaCaT wound closure in vitro were quantified using ImageJ Software (ImageJ 1.37v; http://rsb.info.nih.gov/ij/). The data was analysed by One Way Analysis of Variance with post-test Tukey analysis. Each experiment was performed on 3 separate occasions.

[3] = system: HaCaT cells; test: HaCaT scratch repopulation with Mitomycin C (migration study); type: cell-based, human; details: with 1 μg/mL Mitomycin C; 0.001 to 1.0 μg/mL; p<0.05
[4] = system: HaCaT cells; test: HaCaT proliferation (MTT); type: cell-based, human; parameters: dose or concentration left out as unconfirmed; details: 24, 48, 120 and 168 hr; p<0.01
Excerpt: The proliferation experiment assessed the effects of the two compounds on HaCaT proliferation (as measured by MTT) in the culture system at 4 time periods (24, 48, 120 and 168 hr).

CC=C(C)C(=O)OC1C(C)C2(O)C(C(O)C3(CO)OC3C3(O)C(=O)C(C)=CC32)C2C(C)(C)C12OC(=O)C(C)CC (centres unmarked) [Compound 37, 12-tigloyl-13-(2-methylbutanoyl)-5,6-epoxy-4,5,9,12,13,20-hexahydroxy-1-tigliaen-3-one]
differentiation of TGF-β1-treated adult dermal fibroblasts into myofibroblasts ([1]; 0.001 to 10.0 μg/mL, 72 hr): affected differentiation into myofibroblasts in a concentration-dependent manner | myofibroblast morphology ([1]; 0.1 to 1.0 μg/mL): subtle alterations in myofibroblast morphology | α-SMA stress fibre formation and polygonal morphology development ([1]; TGF-β1 10 ng/ml, 72 hr, 10 μg/mL): disruptive effect on α-SMA stress fibre formation and polygonal morphology development | % of scratch wound area remaining open after treatment ([2]; 0.001 μg/ml): 4.3 ± 4.1% | % of scratch wound area remaining open after treatment ([2]; 0.01 μg/ml): 0.9 ± 1.5% | % of scratch wound area remaining open after treatment ([2]; 0.1 μg/ml): 2.2 ± 3.4% | % of scratch wound area remaining open after treatment ([2]; 1.0 μg/ml): 30.0 ± 5.3% | % of scratch wound area remaining open after treatment ([2]; 10 μg/ml): 37.1 ± 7.1% | rate of scratch closure compared to the control treatment ([2]; 0.001, 0.01, 0.1 and 1.0 μg/ml, p<0.01): increased | scratch repopulation and closure (migration study) [3]: enhanced | proliferation of HaCaT cells (MTT) vs control with no compound [4]: increasing proliferation
